Measured values published in patent US12691092B2, “Method for reducing cutaneous skin scarring by pre-emptive priming and compounds and compositions for its implementation” (SOS SCIENCE OF SKIN LTD, priority 2020, dated 2026).

Tests used:
[1] = tested on: human skin scarring model; test: Blood flow by full-field laser perfusion imaging (FLPI); format: in vivo
Experimental: A double-blind randomized placebo-controlled trial was conducted using a temporal punch-biopsy model. The punch biopsy and topical application methodology used in the study is illustrated in FIG. 1, namely showing pre-injury pre-emptive priming (7-days), pre-injury pre-emptive priming (3-days), day of injury (immediate application on day 0), post-injury (delayed 2 weeks post injury) including biopsy time points and time of topical applications. Each group applied both placebo and topical formulations twice daily for the duration of the study until week 8, with only the starting time point differing between groups Participants were split into 4 groups (n=10 in each group) in order to compare different modes (timings) of commencement of the topical application: • Group-1: Pre-emptive Priming (7-days): pre-injury • Group-2: Pre-emptive Priming (3-days): pre-injury • Group-3: Immediate (0-day): day-of-injury • Group-4: Delayed (14-days): post-injury Clinical quantitative devices were used to objectively monitor cutaneous healing at weekly intervals and punch biopsies were performed on day 0 (uninjured skin) and at weeks 4 and 8 for protein and gene expression analyses. In the trial, topical EGCG and a placebo topical were applied twice daily for the duration of the trial until week 8 with only the starting time points differing between groups. […]

CD31 = CD31 angiogenic immunohistochemical marker in scar biopsies; format: in vivo, human
Experimental: A double-blind randomized placebo-controlled trial was conducted using a temporal punch-biopsy model. The punch biopsy and topical application methodology used in the study is illustrated in FIG. 1, namely showing pre-injury pre-emptive priming (7-days), pre-injury pre-emptive priming (3-days), day of injury (immediate application on day 0), post-injury (delayed 2 weeks post injury) including biopsy time points and time of topical applications. Each group applied both placebo and topical formulations twice daily for the duration of the study until week 8, with only the starting time point differing between groups Participants were split into 4 groups (n=10 in each group) in order to compare different modes (timings) of commencement of the topical application: • Group-1: Pre-emptive Priming (7-days): pre-injury • Group-2: Pre-emptive Priming (3-days): pre-injury • Group-3: Immediate (0-day): day-of-injury • Group-4: Delayed (14-days): post-injury Clinical quantitative devices were used to objectively monitor cutaneous healing at weekly intervals and punch biopsies were performed on day 0 (uninjured skin) and at weeks 4 and 8 for protein and gene expression analyses. In the trial, topical EGCG and a placebo topical were applied twice daily for the duration of the trial until week 8 with only the starting time points differing between groups. Clinical and experimental analysis involved use of non-invasive devices as well as protein and gene studies. Excisional skin biopsies in upper arms were evaluated weekly with multiple quantitative devices over an 8-week period. […] In order to further support these findings and the clinical findings, two well-known and established angiogenic immunohistochemical markers; CD31 and VEGF-A were used. […] There was a significant difference between groups (p=0.02) at week-4.

mast cells (MC) = test: Mast cell identification by MCT, MCC and CKit immunohistochemical markers in scar biopsies (double-blind placebo-controlled punch-biopsy trial); format: in vivo, human
Experimental: A double-blind randomized placebo-controlled trial was conducted using a temporal punch-biopsy model. The punch biopsy and topical application methodology used in the study is illustrated in FIG. 1, namely showing pre-injury pre-emptive priming (7-days), pre-injury pre-emptive priming (3-days), day of injury (immediate application on day 0), post-injury (delayed 2 weeks post injury) including biopsy time points and time of topical applications. Each group applied both placebo and topical formulations twice daily for the duration of the study until week 8, with only the starting time point differing between groups Participants were split into 4 groups (n=10 in each group) in order to compare different modes (timings) of commencement of the topical application: • Group-1: Pre-emptive Priming (7-days): pre-injury • Group-2: Pre-emptive Priming (3-days): pre-injury • Group-3: Immediate (0-day): day-of-injury • Group-4: Delayed (14-days): post-injury Clinical quantitative devices were used to objectively monitor cutaneous healing at weekly intervals and punch biopsies were performed on day 0 (uninjured skin) and at weeks 4 and 8 for protein and gene expression analyses. In the trial, topical EGCG and a placebo topical were applied twice daily for the duration of the trial until week 8 with only the starting time points differing between groups. Clinical and experimental analysis involved use of non-invasive devices as well as protein and gene studies. Excisional skin biopsies in upper arms were evaluated weekly with multiple quantitative devices over an 8-week period. Immunohistochemical analyses, mRNA sequencing and QRT-PCR were performed on tissue biopsies. MC identification was performed using mast cell tryptase (MCT), mast cell chymase (MCC) and CKit markers. […] The percentage differences between the change in placebo and EGCG for group-1 compared to group-2 was 58% (p=0.002), group-3 was 53% (p=0.003) and group-4 was 52% (p=0.005). […] The greatest difference was in group-1 compared to group-3 by 26% (p=0.02) and group-4 by 27% (p=0.02). Subsequent QRT-PCR analysis further confirmed down-regulation of MCT and MCC (p<0.05) in EGCG-treated samples at week-4 in all groups. MCT, MCC and CKit quantitative measurements are expressed in mm^2.

zone of injury = settings: topical EGCG, zonal priming; cited from earlier work
[2] = primed uninjured skin prior to injury
[3] = weeks 4 and 8, all groups, p<0.01, topical twice daily

With O=C(OC1Cc2c(O)cc(O)cc2OC1c1cc(O)c(O)c(O)c1)c1cc(O)c(O)c(O)c1 (single isomer, unassigned; (-)) [EGCG, (-)-epigallocatechin-3-gallate] the “FLPI blood flow, EGCG arms compared to placebo arms” value ([1]; group-1 weeks 1 and 8, group-2 weeks 3, 7, 8, group-3 weeks 1-3, 6-8, group-4 weeks 3-8, p<0.01) was “significant reduction”, the “FLPI blood flow, between group comparison, groups-1 and 3 vs group-4” value ([1]; week 1, p<0.001, p=0.002) was “reduced blood flow more than group-4” and the “Angiogenic markers in primed uninjured skin” value (CD31; [2]) was “reduces angiogenic markers”. For the same molecule, the “CD31: larger reduction in group 1 compared to group-4” value (CD31; week 4, 7-day priming vs delayed, p=0.01) was 40%, the “CD31 in EGCG-treated samples compared with placebo” value (CD31; weeks 4 and 8, all groups, p<0.01) was “significantly down-regulated” and the “Resident mast cell population in primed uninjured skin” value (mast cells (MC); [2]) was “reduces the resident mast cell population”. For the same molecule, the “MCC: larger difference of group-2 than group-4” value (mast cells (MC); week 4, 3-day priming vs delayed, p=0.009) was 29%, the “MCT: percentage difference between the change in placebo and EGCG, group-1 compared to group-2” value (mast cells (MC); week 4, 7-day pre-injury priming vs 3-day priming, p=0.002) was 58% and the “MCT: percentage difference between the change in placebo and EGCG, group-1 compared to group-4” value (mast cells (MC); week 4, 7-day pre-injury priming vs delayed (14 days), p=0.005) was 52%. For the same molecule, the “MCT: percentage difference between the change in placebo and EGCG, group-1 compared to group-3” value (mast cells (MC); week 4, 7-day pre-injury priming vs immediate (day 0), p=0.003) was 53%, the “MCC: greater difference of group-1 than group-4” value (mast cells (MC); week 4, 7-day priming vs delayed, p=0.001) was 41% and the “CKit: difference of group-1 compared to group-4” value (mast cells (MC); week 4, 7-day priming vs delayed, p=0.02) was 27%. The “MCC: greater difference of group-1 than group-3” value (mast cells (MC); week 4, 7-day priming vs immediate, p=0.01) was 29%, the “CKit: difference of group-1 compared to group-3” value (mast cells (MC); week 4, 7-day priming vs immediate, p=0.02) was 26% and the “CKit positive cells, EGCG-treated scars compared to placebo-treated scars” value (mast cells (MC); [3]) was “significantly fewer positive cells”. For the same molecule, the “MCC positive cells, EGCG-treated scars compared to placebo-treated scars” value (mast cells (MC); [3]) was “significantly fewer positive cells”, the “MCT positive cells, EGCG-treated scars compared to placebo-treated scars” value (mast cells (MC); [3]) was “significantly fewer positive cells” and the “Scar outcome, immediate application to zone of injury compared with delayed application two-weeks post-wounding” value (zone of injury) was “reduced scar thickness and angiogenesis, plus increased hydration and elasticity”.
